How the values were obtained:
[1] = 101.33 kPa, Liquid; for mass density: Vibrating tube method; for viscosity: Vibrating wire viscometry
[2] = xn = mol fraction of the nth substance listed; details: 101 kPa, Liquid, Capillary tube (Ostwald / Ubbelohde) method

CCCCCCCCCCCCCC[P+](CCCCCC)(CCCCCC)CCCCCC.N#C[N-]C#N [tetradecyl(trihexyl)phosphonium dicyanamide]
[1]
Details | mass density [kg/m3] | viscosity [mPa·s]
290.66 K | 902.3 | –
293.14 K | – | 505.9
293.15 K | 900.9 | –
293.16 K | 900.9 | –
295.65 K | 899.5 | –
295.66 K | 899.5 | –
298.15 K | 898 | –
298.16 K | 898 | –
298.2 K | – | 378
300.65 K | 896.6 | –
300.66 K | 896.6 | –
303.15 K | 895.1 | –
303.16 K | 895.1 | –
303.18 K | – | 288
305.65 K | 893.7 | –
308.15 K | 892.3 | –
308.16 K | 892.3 | –
308.2 K | – | 219.9
310.65 K | 890.9 | –
310.66 K | 890.9 | –
313.15 K | 889.5 | –
313.16 K | 889.5 | –
313.18 K | – | 171.1
315.65 K | 888.1 | –
318.15 K | 886.7 | –
318.19 K | – | 134.4
320.65 K | 885.3 | –

CCCCCCCCCCCCCC[P+](CCCCCC)(CCCCCC)CCCCCC.N#C[N-]C#N [tetradecyl(trihexyl)phosphonium dicyanamide] + O
[2]
Details | viscosity [mPa·s]
298.17 K, x2 = 0.275 | 372.8
298.17 K, x2 = 0.4 | 362.7
303.11 K, x2 = 0.198 | 284.53
303.13 K, x2 = 0.275 | 282.44
308.09 K, x2 = 0.275 | 217.15
317.92 K, x2 = 0.198 | 135.23
